Test results published in US20100093804A1, “NOVEL CRYSTALLINE FORM OF LANSOPRAZOLE” (HETERO DRUGS LIMITED, priority 2006, published 2010).
Where two headings read alike, the source gives them in different places. Each block holds one molecule with its values, some of them ahead of it.

What was measured:
[1] = stability of the crystalline form over time; format: physicochemical
[2] = solid-solid transition to form A; cited from earlier work
[3] = cited from earlier work

- stability of crystalline form [1]: stable
SMILES: Cc1c(OCC(F)(F)F)ccnc1C[S+]([O-])c1nc2ccccc2[nH]1 (stereo not shown) [lansoprazole form III, 2-[[[3-Methyl-4-(2,2,2-trifluoro-ethoxy)-2-pyridinyl]methyl]sulfinyl]-1H-benzimidazole]

SMILES: Cc1c(OCC(F)(F)F)ccnc1C[S+]([O-])c1nc2ccccc2[nH]1 (stereo not shown) [crystalline lansoprazole form B, 2-[[[3-Methyl-4-(2,2,2-trifluoro-ethoxy)-2-pyridinyl]methyl]sulfinyl]-1H-benzimidazole]
- stability of crystalline form [2]: unstable

SMILES: Cc1c(OCC(F)(F)F)ccnc1C[S+]([O-])c1nc2ccccc2[nH]1 (stereo not shown) [lansoprazole crystalline form II, 2-[[[3-Methyl-4-(2,2,2-trifluoro-ethoxy)-2-pyridinyl]methyl]sulfinyl]-1H-benzimidazole]
- stability of crystalline form on storage ([3]; after some period of sample storage at higher temperatures): converted to stable crystalline form I
- stability of crystalline form ([3]; at temperatures below 0° C.): stable
